# Target: T1, gp120 (Human immunodeficiency virus type 1 group M subtype B, UniProt P03375)
# T1 construct: loaded with 25 μl of 6 mg/ml of gp120 (25 μM) in PBS pH 7.2
# Test: biochemical
# Assay type: binding, HIV
# Protocol: If needed, experiments were repeated within a smaller concentration range (i.e., 10 trials from 0.01 to 0.10 mmol). A total volume of either 50 μl was used in each analysis. Analytes were loaded in the opposite side of the membrane and equilibrium was obtained after incubation of 12 hrs at 23° C. The association constants were determined by non-linear regression analysis. Concentrations of compounds analysed were determined by HPLC analysis by comparison against an internal control (diethyl-7-dimethylaminocoumarineacetamide). HPLC controls were run with an equimolar amount of control and analyte. The relative concentrations of each analyte were determined at both sides of the membrane. […] Each data point was recollected after regeneration of the dialysis setup by exposing the non-protein containing face of the membrane to 5 ml of PBS pH 7.2 twice for 4 to 10 hrs at 23° C.
row,Compound,Kd
1,O=C(O[C@@H]1O[C@@H]2COC(=O)c3cc(O)c(O)c(O)c3-c3c(cc(O)c(O)c3O)C(=O)O[C@H]([C@H]1O)[C@@H]2O)c1cc(O)c(O)c(O)c1 [Corilagin],0.12 µM
2,O=C(O)c1cc(O)c(O)c(O)c1 [Gallic acid],≥ 100 µM
3,O=C1O[C@H]2[C@@H]3OC(=O)c4cc(O)c(O)c(O)c4-c4c(cc(O)c(O)c4O)C(=O)OC[C@H]2O[C@@H](OC(=O)c2cc(O)c(O)c(O)c2)[C@@H]3OC(=O)c2cc(O)c(O)c3c2[C@@H]2C1=CC(=O)[C@](O)(O3)C2(O)O [Geraniin],0.076 µM
4,Cc1c(O)c(O)cc2c1C(/C(=C/C(=O)O)C(=O)OC1C3COC(=O)c4cc(O)c(O)c(O)c4-c4c(cc(O)c(O)c4O)C(=O)OC1C(O)C(OC(=O)c1cc(O)c(O)c(O)c1)O3)C(C(=O)O)OC2=O (stereo not shown) [Repandusinic acid],0.022 µM
